Measured values taken from the supplement of paper PMC10307832.

Columns and labels:
Assay in all cases: relative viability (nuclei count vs DMSO), 5 days (fraction); higher = more cells survive
NCI-H322M = tested on: NCI-H322M
Outline: (§1)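 Cells from lung cancer lines were seeded into 1536-well plates and, one day later, dosed by pin tool. Treatments were either a single drug or a fixed dose of an anchor drug with five library-drug doses (not always all listed) in √10 steps. After 5 days, nuclei were stained in a one-step fixation (final 0.05% Triton X-100, 1% formaldehyde, 1 ug/ml Hoechst) and counted on 4× images, and relative viability is the treated-to-vehicle nuclei ratio, as the median of duplicate plates.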

SK-LU-1 = tested on: SK-LU-1
Outline: as §1

NCI-H2342 = tested on: NCI-H2342
Outline: as §1

EKVX = tested on: EKVX
Outline: as §1

EPLC-272H = tested on: EPLC-272H
Outline: as §1

NCI-H2126 = tested on: NCI-H2126
Outline: as §1

NCI-H23 = tested on: NCI-H23
Outline: as §1

EMC-BAC-2 = tested on: EMC-BAC-2
Outline: as §1

LCLC-103H = tested on: LCLC-103H
Outline: as §1

PC-14 = tested on: PC-14
Outline: as §1

LK-2 = tested on: LK-2
Outline: as §1

NCI-H2405 = tested on: NCI-H2405
Outline: as §1

HCC-827 = tested on: HCC-827
Outline: as §1

NCI-H1975 = tested on: NCI-H1975
Outline: as §1

RERF-LC-KJ = tested on: RERF-LC-KJ
Outline: as §1

HCC-78 = tested on: HCC-78
Outline: as §1

NCI-H1666 = tested on: NCI-H1666
Outline: as §1

ChaGo-K-1 = tested on: ChaGo-K-1
Outline: as §1

SW 1573 = tested on: SW 1573
Outline: as §1

LU99A = tested on: LU99A
Outline: as §1

SW 900 = tested on: SW 900
Outline: as §1

COc1cc2nccc(Oc3ccc(NC(=O)Nc4cc(C)on4)c(Cl)c3)c2cc1OC [Tivozanib] + O=C(CCCCCCC(=O)Nc1ccccc1)NO [Vorinostat] (partner 1 µM)
relative viability (NCI-H322M; first compound 0.005 µM): 0.768
relative viability (NCI-H322M; first compound 0.01581 µM): 0.857
relative viability (NCI-H322M; first compound 0.05 µM): 0.87
relative viability (NCI-H322M; first compound 0.1581 µM): 0.665
relative viability (NCI-H322M; first compound 0.5 µM): 0.744
relative viability (SK-LU-1; first compound 0.005 µM): 0.796
relative viability (SK-LU-1; first compound 0.01581 µM): 0.838
relative viability (SK-LU-1; first compound 0.05 µM): 0.707
relative viability (SK-LU-1; first compound 0.1581 µM): 0.6
relative viability (SK-LU-1; first compound 0.5 µM): 0.729
relative viability (NCI-H2342; first compound 0.005 µM): 0.783
relative viability (NCI-H2342; first compound 0.01581 µM): 0.668
relative viability (NCI-H2342; first compound 0.05 µM): 0.719
relative viability (NCI-H2342; first compound 0.5 µM): 0.811
relative viability (EKVX; first compound 0.005 µM): 0.787
relative viability (EKVX; first compound 0.01581 µM): 0.684
relative viability (EKVX; first compound 0.05 µM): 0.803
relative viability (EKVX; first compound 0.5 µM): 0.765
relative viability (EPLC-272H; first compound 0.005 µM): 0.452
relative viability (EPLC-272H; first compound 0.01581 µM): 0.617
relative viability (EPLC-272H; first compound 0.05 µM): 0.385
relative viability (EPLC-272H; first compound 0.1581 µM): 0.435
relative viability (EPLC-272H; first compound 0.5 µM): 0.281
relative viability (NCI-H2126; first compound 0.005 µM): 0.795
relative viability (NCI-H2126; first compound 0.01581 µM): 0.822
relative viability (NCI-H2126; first compound 0.05 µM): 0.82
relative viability (NCI-H2126; first compound 0.1581 µM): 0.482
relative viability (NCI-H2126; first compound 0.5 µM): 0.729
relative viability (NCI-H23; first compound 0.005 µM): 0.522
relative viability (NCI-H23; first compound 0.01581 µM): 0.484
relative viability (NCI-H23; first compound 0.05 µM): 0.6
relative viability (NCI-H23; first compound 0.5 µM): 0.375
relative viability (EMC-BAC-2; first compound 0.005 µM): 0.281
relative viability (EMC-BAC-2; first compound 0.01581 µM): 0.548
relative viability (EMC-BAC-2; first compound 0.05 µM): 0.5
relative viability (EMC-BAC-2; first compound 0.1581 µM): 0.345
relative viability (EMC-BAC-2; first compound 0.5 µM): 0.201
relative viability (LCLC-103H; first compound 0.005 µM): 0.668
relative viability (LCLC-103H; first compound 0.01581 µM): 0.809
relative viability (LCLC-103H; first compound 0.05 µM): 0.86
relative viability (LCLC-103H; first compound 0.1581 µM): 0.824
relative viability (LCLC-103H; first compound 0.5 µM): 0.656
relative viability (PC-14; first compound 0.005 µM): 0.728
relative viability (PC-14; first compound 0.01581 µM): 0.792
relative viability (PC-14; first compound 0.05 µM): 0.711
relative viability (PC-14; first compound 0.1581 µM): 0.695
relative viability (PC-14; first compound 0.5 µM): 0.58
relative viability (LK-2; first compound 0.005 µM): 0.317
relative viability (LK-2; first compound 0.01581 µM): 0.352
relative viability (LK-2; first compound 0.05 µM): 0.33
relative viability (LK-2; first compound 0.1581 µM): 0.185
relative viability (LK-2; first compound 0.5 µM): 0.186
relative viability (NCI-H2405; first compound 0.005 µM): 0.376
relative viability (NCI-H2405; first compound 0.01581 µM): 1.03
relative viability (NCI-H2405; first compound 0.05 µM): 1.05
relative viability (NCI-H2405; first compound 0.1581 µM): 0.854
relative viability (NCI-H2405; first compound 0.5 µM): 0.788
relative viability (HCC-827; first compound 0.005 µM): 0.69
relative viability (HCC-827; first compound 0.01581 µM): 0.851
relative viability (HCC-827; first compound 0.05 µM): 0.879
relative viability (HCC-827; first compound 0.1581 µM): 0.854
relative viability (HCC-827; first compound 0.5 µM): 0.864
relative viability (NCI-H1975; first compound 0.005 µM): 0.663
relative viability (NCI-H1975; first compound 0.01581 µM): 0.731
relative viability (NCI-H1975; first compound 0.05 µM): 0.712
relative viability (NCI-H1975; first compound 0.1581 µM): 0.699
relative viability (NCI-H1975; first compound 0.5 µM): 0.666
relative viability (RERF-LC-KJ; first compound 0.005 µM): 0.621
relative viability (RERF-LC-KJ; first compound 0.01581 µM): 0.616
relative viability (RERF-LC-KJ; first compound 0.05 µM): 0.734
relative viability (RERF-LC-KJ; first compound 0.1581 µM): 0.58
relative viability (RERF-LC-KJ; first compound 0.5 µM): 0.593
relative viability (HCC-78; first compound 0.005 µM): 0.408
relative viability (HCC-78; first compound 0.01581 µM): 0.47
relative viability (HCC-78; first compound 0.05 µM): 0.412
relative viability (HCC-78; first compound 0.1581 µM): 0.467
relative viability (HCC-78; first compound 0.5 µM): 0.363
relative viability (NCI-H1666; first compound 0.005 µM): 1.07
relative viability (NCI-H1666; first compound 0.01581 µM): 1.01
relative viability (NCI-H1666; first compound 0.05 µM): 1.11
relative viability (NCI-H1666; first compound 0.1581 µM): 1.09
relative viability (NCI-H1666; first compound 0.5 µM): 0.978
relative viability (ChaGo-K-1; first compound 0.005 µM): 0.692
relative viability (ChaGo-K-1; first compound 0.01581 µM): 0.727
relative viability (ChaGo-K-1; first compound 0.05 µM): 0.773
relative viability (ChaGo-K-1; first compound 0.1581 µM): 0.756
relative viability (ChaGo-K-1; first compound 0.5 µM): 0.63
relative viability (SW 1573; first compound 0.005 µM): 0.614
relative viability (SW 1573; first compound 0.01581 µM): 0.935
relative viability (SW 1573; first compound 0.05 µM): 0.677
relative viability (SW 1573; first compound 0.1581 µM): 0.506
relative viability (SW 1573; first compound 0.5 µM): 0.281
relative viability (LU99A; first compound 0.005 µM): 0.43
relative viability (LU99A; first compound 0.01581 µM): 0.443
relative viability (LU99A; first compound 0.05 µM): 0.526
relative viability (LU99A; first compound 0.1581 µM): 0.358
relative viability (LU99A; first compound 0.5 µM): 0.402
relative viability (SW 900; first compound 0.005 µM): 0.459
relative viability (SW 900; first compound 0.01581 µM): 0.481
relative viability (SW 900; first compound 0.05 µM): 0.627
relative viability (SW 900; first compound 0.5 µM): 0.464
